Source: patent US20230248626A1, “Compositions Comprising (Bio)-Alkanediols” (Symrise AG, priority 0001, published 2023)
Converted amounts (≈) assume the structure as drawn.

How the values were obtained:
Format in all cases: cell-based
Candida albicans = test: MIC test (growth inhibition, 96 well plates, OD); conditions: read-out: Minimum Inhibitory Concentration (MIC)
Corynebacterium jeikeium = test: MIC test (growth inhibition, 96 well plates, OD); conditions: read-out: Minimum Inhibitory Concentration (MIC)
Escherichia coli = test: MIC test (growth inhibition, 96 well plates, OD); conditions: read-out: Minimum Inhibitory Concentration (MIC)
Propionibacterium acnes = test: MIC test (growth inhibition, 96 well plates, OD); conditions: Cutibacterium acnes; read-out: Minimum Inhibitory Concentration (MIC)
Staphylococcus aureus = test: MIC test (growth inhibition, 96 well plates, OD); conditions: read-out: Minimum Inhibitory Concentration (MIC)
Staphylococcus hominis = test: MIC test (growth inhibition, 96 well plates, OD); conditions: read-out: Minimum Inhibitory Concentration (MIC)
Aspergillus brasiliensis = test: MIC and Kull synergy index of 1,2-/2,3-alkanediol mixtures; conditions: single 1,2-alkanediol, read-out: MIC Component A
[1] = test system: Aspergillus brasiliensis (AB); test: Preservation efficacy test (PET), European Pharmacopoeia 5.1.3
Summary of the method: (§1)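 Preparations challenged with prescribed inoculums per European Pharmacopoeia 5.1.3, counting microorganisms after the prescribed time. Adequate preservation means a significant fall or no increase in counts.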

Candida albicans (CA) = test: as above
Summary of the method: as §1

Escherichia coli (EC) = test: as above
Summary of the method: as §1

[2] = test system: Pseudomonas aeruginosa (PA); test: as above
Summary of the method: as §1

[3] = test system: Staphylococcus aureus (SA); test: as above
Summary of the method: as §1

**Q.** Which MIC (Candida albicans) does the source give for `CCCCCC(O)CO` (stereo not shown) [1,2-heptanediol] here?
**A.** 5000 µg/mL (≈ 37.8 mM)

**Q.** What about the MIC (Corynebacterium jeikeium) of the same compound?
**A.** 7500 µg/mL (≈ 56.7 mM)

**Q.** What about the MIC (Escherichia coli) of the same compound?
**A.** 5000 µg/mL (≈ 37.8 mM)

**Q.** And the MIC (Propionibacterium acnes)?
**A.** > 5000 µg/mL

**Q.** And the MIC (Staphylococcus aureus)?
**A.** 10000 µg/mL (≈ 75.6 mM)

**Q.** What about the MIC (Staphylococcus hominis) of the same compound?
**A.** 10000 µg/mL (≈ 75.6 mM)

**Q.** And the MIC (Aspergillus brasiliensis)?
**A.** 5000 µg/mL

**Q.** What about the “number of microorganisms after 2 days” value ([1]; 0.1% in shampoo) of the same compound?
**A.** 240,000

**Q.** And the “number of microorganisms after 7 days” value ([1]; 0.1% in shampoo)?
**A.** 220,000

**Q.** And the “number of microorganisms after 14 days” value ([1]; 0.1% in shampoo)?
**A.** 150,000

**Q.** What about the “number of microorganisms after 28 days” value ([1]; 0.1% in shampoo) of the same compound?
**A.** 19,000

**Q.** And the “number of microorganisms after 2 days” value ([1]; 0.2% in o/w emulsion)?
**A.** 2,200,000

**Q.** What about the “number of microorganisms after 7 days” value ([1]; 0.2% in o/w emulsion) of the same compound?
**A.** 2,000,000

**Q.** What about the “number of microorganisms after 14 days” value ([1]; 0.2% in o/w emulsion) of the same compound?
**A.** 2,500,000

**Q.** And the “number of microorganisms after 28 days” value ([1]; 0.2% in o/w emulsion)?
**A.** 2,100,000

**Q.** And the “number of microorganisms after 2 days” value ([1]; 0.4% in o/w emulsion)?
**A.** 1,000,000

**Q.** What about the “number of microorganisms after 7 days” value ([1]; 0.4% in o/w emulsion) of the same compound?
**A.** 180,000

**Q.** And the “number of microorganisms after 14 days” value ([1]; 0.4% in o/w emulsion)?
**A.** 150,000

**Q.** And the “number of microorganisms after 28 days” value ([1]; 0.4% in o/w emulsion)?
**A.** 1

**Q.** What about the “number of microorganisms after 2 days” value (Candida albicans (CA); 0.1% in shampoo) of the same compound?
**A.** 220,000

**Q.** And the “number of microorganisms after 7 days” value (Candida albicans (CA); 0.1% in shampoo)?
**A.** 62,000

**Q.** And the “number of microorganisms after 14 days” value (Candida albicans (CA); 0.1% in shampoo)?
**A.** 8,100

**Q.** And the “number of microorganisms after 28 days” value (Candida albicans (CA); 0.1% in shampoo)?
**A.** 1

**Q.** And the “number of microorganisms after 2 days” value (Candida albicans (CA); 0.2% in o/w emulsion)?
**A.** 1,300,000

**Q.** What about the “number of microorganisms after 7 days” value (Candida albicans (CA); 0.2% in o/w emulsion) of the same compound?
**A.** 1,600,000

**Q.** What about the “number of microorganisms after 14 days” value (Candida albicans (CA); 0.2% in o/w emulsion) of the same compound?
**A.** 1,200,000

**Q.** What about the “number of microorganisms after 28 days” value (Candida albicans (CA); 0.2% in o/w emulsion) of the same compound?
**A.** 620,000

**Q.** What about the “number of microorganisms after 2 days” value (Candida albicans (CA); 0.4% in o/w emulsion) of the same compound?
**A.** 71,000

**Q.** What about the “number of microorganisms after 7 days” value (Candida albicans (CA); 0.4% in o/w emulsion) of the same compound?
**A.** 2,800

**Q.** And the “number of microorganisms after 14 days” value (Candida albicans (CA); 0.4% in o/w emulsion)?
**A.** 1

**Q.** What about the “number of microorganisms after 28 days” value (Candida albicans (CA); 0.4% in o/w emulsion) of the same compound?
**A.** 1

**Q.** What about the “number of microorganisms after 2 days” value (Escherichia coli (EC); 0.1% in shampoo) of the same compound?
**A.** 2,100,000

**Q.** And the “number of microorganisms after 7 days” value (Escherichia coli (EC); 0.1% in shampoo)?
**A.** 1,400,000

**Q.** What about the “number of microorganisms after 14 days” value (Escherichia coli (EC); 0.1% in shampoo) of the same compound?
**A.** 200,000

**Q.** And the “number of microorganisms after 28 days” value (Escherichia coli (EC); 0.1% in shampoo)?
**A.** 1

**Q.** What about the “number of microorganisms after 2 days” value (Escherichia coli (EC); 0.2% in o/w emulsion) of the same compound?
**A.** 38,000

**Q.** What about the “number of microorganisms after 7 days” value (Escherichia coli (EC); 0.2% in o/w emulsion) of the same compound?
**A.** 73

**Q.** And the “number of microorganisms after 14 days” value (Escherichia coli (EC); 0.2% in o/w emulsion)?
**A.** 1

**Q.** And the “number of microorganisms after 28 days” value (Escherichia coli (EC); 0.2% in o/w emulsion)?
**A.** 1

**Q.** And the “number of microorganisms after 2 days” value (Escherichia coli (EC); 0.4% in o/w emulsion)?
**A.** 23,000

**Q.** What about the “number of microorganisms after 7 days” value (Escherichia coli (EC); 0.4% in o/w emulsion) of the same compound?
**A.** 4,100

**Q.** And the “number of microorganisms after 14 days” value (Escherichia coli (EC); 0.4% in o/w emulsion)?
**A.** 1

**Q.** What about the “number of microorganisms after 28 days” value (Escherichia coli (EC); 0.4% in o/w emulsion) of the same compound?
**A.** 1

**Q.** And the “number of microorganisms after 2 days” value ([2]; 0.1% in shampoo)?
**A.** 2,500

**Q.** What about the “number of microorganisms after 7 days” value ([2]; 0.1% in shampoo) of the same compound?
**A.** 10

**Q.** And the “number of microorganisms after 14 days” value ([2]; 0.1% in shampoo)?
**A.** 1

**Q.** What about the “number of microorganisms after 28 days” value ([2]; 0.1% in shampoo) of the same compound?
**A.** 1

**Q.** What about the “number of microorganisms after 2 days” value ([2]; 0.2% in o/w emulsion) of the same compound?
**A.** 1

**Q.** And the “number of microorganisms after 7 days” value ([2]; 0.2% in o/w emulsion)?
**A.** 1

**Q.** And the “number of microorganisms after 14 days” value ([2]; 0.2% in o/w emulsion)?
**A.** 1

**Q.** And the “number of microorganisms after 28 days” value ([2]; 0.2% in o/w emulsion)?
**A.** 1

**Q.** And the “number of microorganisms after 2 days” value ([2]; 0.4% in o/w emulsion)?
**A.** 1

**Q.** What about the “number of microorganisms after 7 days” value ([2]; 0.4% in o/w emulsion) of the same compound?
**A.** 1

**Q.** And the “number of microorganisms after 14 days” value ([2]; 0.4% in o/w emulsion)?
**A.** 1

**Q.** And the “number of microorganisms after 28 days” value ([2]; 0.4% in o/w emulsion)?
**A.** 1

**Q.** And the “number of microorganisms after 2 days” value ([3]; 0.1% in shampoo)?
**A.** 10

**Q.** What about the “number of microorganisms after 7 days” value ([3]; 0.1% in shampoo) of the same compound?
**A.** 10

**Q.** What about the “number of microorganisms after 14 days” value ([3]; 0.1% in shampoo) of the same compound?
**A.** 1

**Q.** What about the “number of microorganisms after 28 days” value ([3]; 0.1% in shampoo) of the same compound?
**A.** 1

**Q.** What about the “number of microorganisms after 2 days” value ([3]; 0.2% in o/w emulsion) of the same compound?
**A.** 95,000

**Q.** What about the “number of microorganisms after 7 days” value ([3]; 0.2% in o/w emulsion) of the same compound?
**A.** 1

**Q.** And the “number of microorganisms after 14 days” value ([3]; 0.2% in o/w emulsion)?
**A.** 1

**Q.** And the “number of microorganisms after 28 days” value ([3]; 0.2% in o/w emulsion)?
**A.** 1

**Q.** What about the “number of microorganisms after 2 days” value ([3]; 0.4% in o/w emulsion) of the same compound?
**A.** 15,000

**Q.** And the “number of microorganisms after 7 days” value ([3]; 0.4% in o/w emulsion)?
**A.** 2,600

**Q.** What about the “number of microorganisms after 14 days” value ([3]; 0.4% in o/w emulsion) of the same compound?
**A.** 1

**Q.** What about the “number of microorganisms after 28 days” value ([3]; 0.4% in o/w emulsion) of the same compound?
**A.** 1
